For 18 molecules, T/C results are on record in PubChem BioAssay AID328 (DTP/NCI, 2004).

For the experiment, the system named is BDF1 mice, P388 leukemia ip, median survival T/C. The experiment is described as follows: NCI In Vivo Anticancer Drug Screen. Data for tumor model P388 Leukemia (intraperitoneal) in B6D2F1 (BDF1) mice. Particulars: endpoint: median survival time, higher = longer survival. The procedure, abridged:
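T/C = treated-group survival ÷ vehicle-control survival; tumour transplanted into mice before dosing.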

Where [1] appears, read: dose: 100.0 mg/kg/injection, schedule: Q04DX003 (ip), vehicle: Klucel (hydroxypropylcellulose) (HPC).
[2] abbreviates: dose: 200.0 mg/kg/injection, schedule: Q04DX003 (ip), vehicle: Klucel (hydroxypropylcellulose) (HPC).
The mark [3] stands for this setting: dose: 400.0 mg/kg/injection, schedule: Q04DX003 (ip), vehicle: Klucel (hydroxypropylcellulose) (HPC).
Setting [4] is: dose: 100.0 mg/kg/injection, schedule: Q01DX009 (ip), vehicle: saline with Tween-80.
The mark [5] stands for this setting: dose: 100.0 mg/kg/injection, schedule: Q04DX003 (ip), vehicle: saline with Tween-80.
Setting [6] is: dose: 200.0 mg/kg/injection, schedule: Q01DX009 (ip), vehicle: saline with Tween-80.
[7] abbreviates: dose: 200.0 mg/kg/injection, schedule: Q04DX003 (ip), vehicle: saline with Tween-80.
[8] abbreviates: dose: 50.0 mg/kg/injection, schedule: Q04DX003 (ip), vehicle: saline with Tween-80.
The mark [9] stands for this setting: dose: 25.0 mg/kg/injection, schedule: Q01DX009 (ip), vehicle: Klucel (hydroxypropylcellulose) (HPC).
Where [10] appears, read: dose: 50.0 mg/kg/injection, schedule: Q01DX009 (ip), vehicle: Klucel (hydroxypropylcellulose) (HPC).
[11] abbreviates: dose: 100.0 mg/kg/injection, schedule: Q01DX009 (ip), vehicle: Klucel (hydroxypropylcellulose) (HPC).
Setting [12] is: dose: 50.0 mg/kg/injection, schedule: Q01DX009 (ip), vehicle: saline with Tween-80.
The mark [13] stands for this setting: dose: 100.0 mg/kg/injection, schedule: Q01DX009 (ip), vehicle: saline.
The mark [14] stands for this setting: dose: 50.0 mg/kg/injection, schedule: Q04DX003 (ip), vehicle: Klucel (hydroxypropylcellulose) (HPC).

Several values for one entry are separate records, joined by “and”; a condition that tells them apart may be missing. Identical values can stand only once. Toxic doses and inconclusive results are not listed.

Regarding `C=C1[C@@H](C)[C@H]2[C@H](Cc3ccccc3)NC(=O)[C@]23OC(=O)/C=C/[C@H](O)CCC[C@@H](C)C/C=C/[C@H]3[C@@H]1O`, the T/C is, setting by setting: (dose: 0.25 mg/kg/injection, schedule: Q01DX005 (ip), vehicle: saline with Tween-80) 86 % of control; (dose: 0.5 mg/kg/injection, schedule: Q01DX005 (ip), vehicle: saline with Tween-80) 100 % of control; (dose: 1.0 mg/kg/injection, schedule: Q01DX005 (ip), vehicle: saline with Tween-80) 100 % of control; (dose: 1.0 mg/kg/injection, schedule: Q04DX002 (ip), vehicle: saline) 109 % of control; (dose: 2.0 mg/kg/injection, schedule: Q01DX005 (ip), vehicle: saline with Tween-80) 107 % of control; (dose: 2.0 mg/kg/injection, schedule: Q04DX002 (ip), vehicle: saline) 109 % of control. Moreover, the T/C runs as follows: (dose: 4.0 mg/kg/injection, schedule: Q01DX005 (ip), vehicle: saline with Tween-80) 115 % of control; (dose: 8.0 mg/kg/injection, schedule: Q01DX005 (ip), vehicle: saline with Tween-80) 117 % of control; (dose: 8.0 mg/kg/injection, schedule: Q04DX002 (ip), vehicle: saline) 109 % of control; (dose: 16.0 mg/kg/injection, schedule: Q04DX002 (ip), vehicle: saline) 109 % of control; (dose: 32.0 mg/kg/injection, schedule: Q04DX002 (ip), vehicle: saline) 100 % of control.
For the molecule `CCOCCN1C=C/C(=C/C=C/c2cc[n+](CCOCC)c3ccccc23)c2ccccc21`, the T/C runs as follows: (dose: 0.22 mg/kg/injection, schedule: Q01DX009 (ip), vehicle: Klucel (hydroxypropylcellulose) (HPC)) 100 % of control; (dose: 0.45 mg/kg/injection, schedule: Q01DX009 (ip), vehicle: Klucel (hydroxypropylcellulose) (HPC)) 100 % of control; (dose: 0.9 mg/kg/injection, schedule: Q01DX009 (ip), vehicle: Klucel (hydroxypropylcellulose) (HPC)) 105 % of control.
As for `CCOCCc1ccncc1`, the T/C is 112 % of control (dose: 50.0 mg/kg/injection, schedule: Q04DX003 (ip), vehicle: saline); 108 % of control (dose: 100.0 mg/kg/injection, schedule: Q04DX003 (ip), vehicle: saline); 100 % of control (dose: 200.0 mg/kg/injection, schedule: Q04DX003 (ip), vehicle: saline).
For `CC(C)(C)c1ccc(C(c2ccc(C(C)(C)C)cc2)C(Cl)Cl)cc1`, the T/C reads like this: under setting [1], 91 % of control; under setting [2], 91 % of control; under setting [3], 95 % of control.
On to `CCOC(=O)C1OC12CCCCC2` (configuration not stated), for which the T/C by setting is: (dose: 100.0 mg/kg/injection, schedule: Q01DX001 (ip), vehicle: Klucel (hydroxypropylcellulose) (HPC)) 109 % of control; (dose: 200.0 mg/kg/injection, schedule: Q01DX001 (ip), vehicle: Klucel (hydroxypropylcellulose) (HPC)) 100 % of control; under setting [2], 100 % of control; (dose: 400.0 mg/kg/injection, schedule: Q01DX001 (ip), vehicle: Klucel (hydroxypropylcellulose) (HPC)) 113 % of control; under setting [3], 116 % of control.
With `Cc1ccc(C(=O)/C=C\c2ccccc2)cc1`, the T/C by setting is: under setting [4], 104 % of control; under setting [5], 103 % of control; under setting [6], 104 % of control; under setting [7], 103 % of control; (dose: 400.0 mg/kg/injection, schedule: Q01DX009 (ip), vehicle: saline with Tween-80) 104 % of control; (dose: 400.0 mg/kg/injection, schedule: Q04DX003 (ip), vehicle: saline with Tween-80) 103 % of control.
For the molecule `COCC(O)CCl` (configuration not stated), the T/C reads like this: under setting [8], 100 % of control; under setting [5], 100 % of control and 110 % of control; under setting [7], 100 % of control and 110 % of control.
Consider `CC[C@@H](C(=O)[C@@H](C)[C@@H](O)[C@H](C)CCc1ccc(C)c(O)c1C(=O)O)[C@H]1O[C@](CC)([C@H]2CC[C@](O)(CC)[C@H](C)O2)C[C@@H]1C`, for which the T/C is, setting by setting: (dose: 3.12 mg/kg/injection, schedule: Q01DX009 (ip), vehicle: Klucel (hydroxypropylcellulose) (HPC)) 108 % of control; (dose: 6.25 mg/kg/injection, schedule: Q01DX009 (ip), vehicle: Klucel (hydroxypropylcellulose) (HPC)) 110 % of control; (dose: 12.5 mg/kg/injection, schedule: Q01DX009 (ip), vehicle: Klucel (hydroxypropylcellulose) (HPC)) 118 % of control and 119 % of control.
Regarding `CCN(CC)Cc1cc(Nc2c3ccccc3nc3cc(Cl)ccc23)ccc1O`, the T/C (dose: 12.5 mg/kg/injection, schedule: Q01DX009 (ip), vehicle: saline) is 100 % of control; the T/C (dose: 12.5 mg/kg/injection, schedule: Q04DX003 (ip), vehicle: saline sonified) is 104 % of control; the T/C (dose: 25.0 mg/kg/injection, schedule: Q01DX009 (ip), vehicle: saline) is 100 % of control; the T/C (dose: 25.0 mg/kg/injection, schedule: Q04DX003 (ip), vehicle: saline sonified) was 100 % of control; the T/C (dose: 50.0 mg/kg/injection, schedule: Q04DX003 (ip), vehicle: saline sonified) was 104 % of control.
Take `Cc1ccc(CO)cc1C`: the T/C was 100 % of control under setting [8], 100 % of control under setting [5] and 104 % of control under setting [7].
On to `C1=C(c2ccccc2)CS1`, for which the T/C (dose: 25.0 mg/kg/injection, schedule: Q01DX001 (ip), vehicle: saline with Tween-80) is 104 % of control and the T/C (dose: 50.0 mg/kg/injection, schedule: Q01DX001 (ip), vehicle: saline with Tween-80) was 101 % of control.
Take `C[C@]12CCC(=O)C=C1CC[C@H]1[C@@H]3CC[C@@]4(OCC4=O)[C@@]3(C)C[C@H](O)[C@@]12F`: the T/C was 96 % of control under setting [9]; 104 % of control under setting [10]; 104 % of control under setting [11]; 104 % of control under setting [1]; 112 % of control under setting [2]; 108 % of control under setting [3].
Turning to `Oc1c(Cl)cc(Cl)cc1C1N=NC2=C(CCCC2)N1O` (configuration not stated), the T/C is 106 % of control under setting [12], 88 % of control under setting [4] and 93 % of control under setting [6].
Taken in the same sequence, the figures for `O=C1c2ccccc2C2CCCC12` (configuration not stated) were 105 % of control, 120 % of control and 112 % of control.
`O=C(NC1CCCC2C(NC(=O)c3ccccc3)CCCC12)c1ccccc1` (configuration not stated): the T/C is 120 % of control (dose: 66.0 mg/kg/injection, schedule: Q01DX009 (ip), vehicle: saline); 104 % of control (dose: 100.0 mg/kg/injection, schedule: Q01DX001 (ip), vehicle: saline); 100 % of control and 109 % of control under setting [13]; 100 % of control and 109 % of control (dose: 150.0 mg/kg/injection, schedule: Q01DX009 (ip), vehicle: saline); 95 % of control (dose: 200.0 mg/kg/injection, schedule: Q01DX001 (ip), vehicle: saline); 115 % of control (dose: 200.0 mg/kg/injection, schedule: Q01DX009 (ip), vehicle: saline). Besides, the T/C is 104 % of control (dose: 400.0 mg/kg/injection, schedule: Q01DX001 (ip), vehicle: saline) and 100 % of control (dose: 400.0 mg/kg/injection, schedule: Q01DX009 (ip), vehicle: saline).
For the molecule `CCOC(=O)N1c2ccccc2C=CC1/C(N)=N/O` (configuration not stated), the T/C runs as follows: under setting [9], 109 % of control; under setting [10], 95 % of control; under setting [14], 95 % of control; under setting [11], 104 % of control; under setting [1], 95 % of control.
Take `CC1(C)C=C(C(Br)c2ccc(Cl)cc2)C(=O)c2ccccc21` (configuration not stated): the T/C by setting is: under setting [10], 100 % of control; under setting [14], 100 % of control; under setting [11], 100 % of control and 105 % of control; under setting [13], 160 % of control; under setting [1], 90 % of control; under setting [2], 100 % of control. Also, the T/C (dose: 400.0 mg/kg/injection, schedule: Q01DX009 (ip), vehicle: Klucel (hydroxypropylcellulose) (HPC)) is 95 % of control.
Take `CN(Cc1cnc2nc(N)nc(N)c2n1)c1ccc(C(=O)NC(CCC(=O)O)C(=O)O)cc1Br` (configuration not stated): the T/C was 231 % of control (dose: 0.35 mg/kg/injection, schedule: Q01DX009 (ip), vehicle: saline); 259 % of control (dose: 0.7 mg/kg/injection, schedule: Q01DX009 (ip), vehicle: saline); 250 % of control (dose: 13.2 mg/kg/injection, schedule: Q04DX003 (ip), vehicle: saline with Tween-80).
